pIC50: −log10 of the molar value. Values joined by “and” are separate entries in the source; they are usually repeats but may differ in a detail not shown here. Identical values can stand only once. “Also recorded” adds a separate entry of the source.
Experiments:
[1] = tested on: Breast patient VII PDX tumors; assay: Breast patient VII PDX model, combination with DOX; type: in vivo, nude mice
Description: Nude mice bearing orthotopic the Breast patient VII PDX tumors received 5 mg/kg equivalent dose of GKT831 or HANP/GKT831 combined with 5 mg/kg of DOX via the tail vein once a week for 5 administrations.
Therapy resistant breast cancer PDX models were established in nude mice from surgically resected tumor tissues of both hormonal receptor positive (HR+) and triple negative breast cancer patients. Patient VII PDX model was derived tumor from HR+ breast cancer tissue that progressed after neoadjuvant therapy with Dox+ Taxol and adjuvant radiotherapy (50 Gy). Patient IX PDX model was derived from a breast cancer tissue that was resistant to Dox/cyclophosphamide/Taxol therapy and 50 Gy of pre-operative radiation therapy. Both patients developed recurrent tumors and deceased 23 and 25 months after surgery. […] CD44 is the cellular receptor for HA and therefore, HANP can target to CD44+ tumor and stromal cells. […] The targeted delivery of near-infrared (NIR) 830 dye labeled HANPs in the breast cancer PDX models were examined using optical imaging and histological analysis. […] Accumulation of HANPs in the liver was further examined.
The inhibition of NOX1/4 on tumor growth and sensitization of therapeutic responses to a chemotherapy drug, DOX, were examined in the breast Patient VII and Patient IX PDX models growing in the mammary fat pad of nude mice.

[2] = tested on: ROS generation in MCF-7 cells (NOX1/4 activity); assay: ROS production in MCF-7 cells (DCFDA assay); type: cell-based, human
[3] = tested on: Breast patient IX PDX tumors; assay: Breast patient IX PDX model, combination with Dox; type: in vivo, nude mice
[4] = tested on: Breast patient VII PDX tumors; assay: RNAseq gene expression profiles of PDX tumors after five i.v. treatments; type: in vivo, nude mice
Description: ATFB was increased by HANP/GKT831 but decrease in GKT831 treated tumor.
Biomaterial low molecular weight HA generated nanoparticle drug carrier has unique biological activities compared with other nanoparticle drug carriers. […] To understand molecular mechanisms by which HANP/GKT831 enhanced responses to DNA damaging drug and radiation, gene expression profiles of the breast patient VII PDX tumors following five i.v. treatments were analyzed using RNAseq assay. […] Since human immune cells express NOX2 subtype, HANP/GKT831 treatment may not affect tumor immune responses but GKT831 treatment may decrease immune responses in tumors. Furthermore, HANP/GKT831 inhibited the expression of mitochondrial electron transport and ATP production genes, which promote tumor cell death (FIG. 7B). […] Therefore, it is likely that those differences in gene regulation contributed to a strong chemo- and radiotherapy enhancement effect of HANP/GKT831.

[5] = tested on: human breast cancer MCF-7 cells; assay: Cell proliferation assay on MCF-7 cells; type: cell-based; conditions: MCF7, read-out: IC50, growth inhibition

In the case of COc1cccc2c1C(=O)c1c(O)c3c(c(O)c1C2=O)C[C@@](O)(C(=O)CO)C[C@@H]3O[C@H]1C[C@H](N)[C@H](O)[C@H](C)O1 [DOX, doxorubicin], the “increase in tumor volume compared the starting tumor volume” value ([1]; 5 mg/kg i.v. weekly x5) was 150% and the “tumor growth inhibition compared to no treatment control” value ([1]; single agent treatment) was ~40% and 60%.
For CN(C)c1cccc(-c2c3c(=O)n(-c4ccccc4Cl)[nH]c3cc(=O)n2C)c1 [GKT831, 2-(2-chlorophenyl)-4-(3-(dimethylamino)phenyl)-5-methyl-1,2-dihydro-3H-pyrazolo[4,3-c]pyridine-3,6(5H)-dione], the ROS generation [2] was “did not show obvious ROS reduction”, the “effect on tumor growth” value [3] was “did not show a significant difference; also recorded: did not show any effect on tumor growth” and the ATFB expression ([4]; PDX tumors (FIG. 7B)) was “decrease”. For the same molecule, the “expression of mitochondrial electron transport and ATP production genes” value ([4]; PDX tumors (FIG. 7B)) was “increased MT-ND and MT-CO2 expression”, the “expression of mitochondrial electron transport and ATP production genes” value ([4]; PDX tumors (FIG. 7B), listed as GKT 831) was “upregulated the expression of some of those genes” and the NOX2 gene expression ([4]; patient VII PDX tumors) was “downregulated”. The “level of NOX4 gene expression” value ([4]; patient VII PDX tumors) was “did not significantly affect”, the pIC50 [5] was 4.52 and the “anti-tumor effect / tumor growth inhibition” value [1] was “did not show a significant difference”.
